Measurements reported in ChEMBL document CHEMBL5143649, “Broad-spectrum cyclic boronate β-lactamase inhibitors featuring an intramolecular prodrug for oral bioavailability” (Bioorg Med Chem, 2022).

Assays:
[1] = test system: Escherichia coli; test: Potentiation of aztreonam-induced antibacterial activity against Escherichia coli 302 producing TEM-10 assessed as concentration required to reduce aztreonam MIC to 4 ug/ml by CLSI based broth microdilution method; type: functional
[2] = test system: Escherichia coli; test: Potentiation of aztreonam-induced antibacterial activity against Escherichia coli 1010 producing CMY-6 assessed as concentration required to reduce aztreonam MIC to 4 ug/ml by CLSI based broth microdilution method; type: functional
[3] = test system: Escherichia coli; test: Potentiation of aztreonam-induced antibacterial activity against Escherichia coli 308 producing SHV-5 assessed as concentration required to reduce aztreonam MIC to 4 ug/ml by CLSI based broth microdilution method; type: functional
[4] = test system: Klebsiella pneumoniae; test: Potentiation of aztreonam-induced antibacterial activity against Klebsiella pneumoniae 1009 producing class A CTX-M-14 assessed as concentration required to reduce aztreonam MIC to 4 ug/ml by CLSI based broth microdilution method; type: functional
[5] = test system: Klebsiella pneumoniae; test: Potentiation of aztreonam-induced antibacterial activity against Klebsiella pneumoniae 1004 producing KPC assessed as concentration required to reduce aztreonam MIC to 4 ug/ml by CLSI based broth microdilution method; type: functional
[6] = test system: Enterobacter cloacae; test: Potentiation of aztreonam-induced antibacterial activity against Enterobacter cloacae 1002 producing AmpC assessed as concentration required to reduce aztreonam MIC to 4 ug/ml by CLSI based broth microdilution method; type: functional
[7] = test system: Klebsiella pneumoniae; test: microbe, parasite or virus in culture; conditions: 1004
[8] = test system: Klebsiella pneumoniae; test: microbe, parasite or virus in culture; conditions: 1009
[9] = test system: Escherichia coli; test: microbe, parasite or virus in culture; conditions: 302
[10] = test system: Escherichia coli; test: microbe, parasite or virus in culture; conditions: 1010
[11] = test system: Escherichia coli; test: microbe, parasite or virus in culture; conditions: 308
[12] = Oral bioavailability in rat at 100 mg/kg measured upto 24 hrs by HPLC-MS analysis; type: ADME, organism-based; conditions: in vivo
[13] = Oral bioavailability in rat at 30 mg/kg measured upto 24 hrs by HPLC-MS analysis; type: ADME, organism-based; conditions: in vivo
[14] = AUC in rat at 100 mg/kg, po measured upto 24 hrs by HPLC-MS analysis; type: ADME, organism-based; set-up: time < 24 hrs, dose 100 mg/kg, route po; conditions: in vivo
[15] = AUC in rat at 300 mg/kg, po measured upto 24 hrs by HPLC-MS analysis; type: ADME, organism-based; set-up: dose 300 mg/kg, time < 24 hrs, route po; conditions: in vivo
[16] = AUC in rat at 30 mg/kg, po measured upto 24 hrs by HPLC-MS analysis; type: ADME, organism-based; set-up: dose 30 mg/kg, time < 24 hrs, route po; conditions: in vivo
[17] = Oral bioavailability in rat at 300 mg/kg measured upto 24 hrs by HPLC-MS analysis; type: ADME, organism-based; conditions: in vivo
[18] = Oral bioavailability in rat; type: ADME, organism-based; conditions: in vivo
[19] = AUC in rat at 300 mg/kg administered as iv infusion for 0.5 hrs and measured upto 24 hrs by HPLC-MS analysis; type: ADME, organism-based; set-up: time < 24.5 hrs, dose 300 mg/kg, route iv; conditions: in vivo
[20] = AUC in rat at 30 mg/kg administered as iv infusion for 0.5 hrs and measured upto 24 hrs by HPLC-MS analysis; type: ADME, organism-based; set-up: time < 24.5 hrs, dose 30 mg/kg, route iv; conditions: in vivo
[21] = AUC in rat at 100 mg/kg administered as iv infusion for 0.5 hrs and measured upto 24 hrs by HPLC-MS analysis; type: ADME, organism-based; set-up: dose 100 mg/kg, time < 24.5 hrs, route iv; conditions: in vivo

## Nc1nnc(SCC(=O)N[C@H]2CC=C[C@H](CC(=O)O)OB2O)s1
[1]
  EC: 5 µg/mL
[2]
  EC: 1.25 µg/mL
[3]
  EC: 1.25 µg/mL
[4]
  EC: 2.5 µg/mL
[5]
  EC: 5 µg/mL
[6]
  EC: 0.6 µg/mL

## C[C@H]1[C@H](NC(=O)/C(=N\OC(C)(C)C(=O)O)c2csc(N)n2)C(=O)N1S(=O)(=O)O [AZTREONAM]
[7]
  MIC: > 64 µg/mL
[8]
  MIC: > 64 µg/mL
[9]
  MIC: > 64 µg/mL
[10]
  MIC: > 64 µg/mL
[11]
  MIC: > 64 µg/mL

## O=C(O)CC1COC[C@H](NC(=O)Cc2cccs2)B(O)O1 (stereo partly drawn)
[1]
  EC: 20 µg/mL
[2]
  EC: 10 µg/mL
[3]
  EC: 5 µg/mL
[4]
  EC: 5 µg/mL
[5]
  EC: 40 µg/mL
[6]
  EC: 10 µg/mL

## O=C(O)CC1C=CC[C@H](NC(=O)Cc2cccs2)B(O)O1 (stereo partly drawn)
[1]
  EC: 10 µg/mL
[2]
  EC: 20 µg/mL
[3]
  EC: 2.5 µg/mL
[4]
  EC: 10 µg/mL
[5]
  EC: 20 µg/mL
[6]
  EC: 10 µg/mL

## CSCC(=O)N[C@H]1CC=C[C@@H]2CC(=O)OB1O2
[12]
  bioavailability: 69.3%
[13]
  bioavailability: 52%
[14]
  AUC at 24 h: 55000 ng·h/mL
[15]
  AUC at 24 h: 179 µg·h/mL
[16]
  AUC at 24 h: 14600 ng·h/mL
[17]
  bioavailability: 64.9%

## CC(=O)N1CC(CC(=O)O)OB(O)[C@@H](NC(=O)Cc2cccs2)C1 (stereo partly drawn)
[1]
  EC: 20 µg/mL
[2]
  EC: 10 µg/mL
[3]
  EC: 1.25 µg/mL
[4]
  EC: 5 µg/mL
[5]
  EC: 40 µg/mL
[6]
  EC: 20 µg/mL

## CSCC(=O)N[C@H]1CC=C[C@H](CC(=O)O)OB1O
[1]
  EC: 5 µg/mL
[2]
  EC: 5 µg/mL
[3]
  EC: 1.25 µg/mL
[4]
  EC: 2.5 µg/mL
[5]
  EC: 10 µg/mL
[6]
  EC: 1.25 µg/mL

## O=C(O)C[C@@H]1CC[C@H](NC(=O)Cc2cccs2)B(O)O1 [VABORBACTAM]
[1]
  EC: >40 µg/mL
[2]
  EC: 20 µg/mL
[3]
  EC: >40 µg/mL
[4]
  EC: >40 µg/mL
[5]
  EC: 1.25 µg/mL
[18]
  bioavailability: < 10%
[6]
  EC: 20 µg/mL

## COC(=O)N1CC(CC(=O)O)OB(O)[C@@H](NC(=O)Cc2cccs2)C1 (stereo partly drawn)
[1]
  EC: 20 µg/mL
[2]
  EC: 20 µg/mL
[3]
  EC: 2.5 µg/mL
[4]
  EC: 10 µg/mL
[5]
  EC: 40 µg/mL

## O=C(O)C[C@@H]1C=CC[C@H](NC(=O)Cc2cccs2)B(O)O1
[1]
  EC: >40 µg/mL
[2]
  EC: 40 µg/mL
[3]
  EC: 10 µg/mL
[4]
  EC: 20 µg/mL
[5]
  EC: 40 µg/mL
[6]
  EC: 10 µg/mL

## O=C(Cc1cccs1)N[C@H]1CC=C[C@@H]2CC(=O)OB1O2
[18]
  bioavailability: 48%

## O=C(O)C[C@H]1C=CC[C@H](NC(=O)c2cccnc2)B(O)O1
[1]
  EC: 1.25 µg/mL
[2]
  EC: 1.25 µg/mL
[3]
  EC: 2.5 µg/mL
[4]
  EC: 5 µg/mL
[5]
  EC: 10 µg/mL
[6]
  EC: 1.25 µg/mL

## O=C(O)C[C@H]1C=CC[C@H](NC(=O)Cc2cccs2)B(O)O1
[1]
  EC: 5 µg/mL
[2]
  EC: 10 µg/mL
[3]
  EC: 1.25 µg/mL
[4]
  EC: 5 µg/mL
[5]
  EC: 10 µg/mL
[6]
  EC: 2.5 µg/mL

## O=C(O)CC1CCC[C@H](NC(=O)Cc2cccs2)B(O)O1 (stereo partly drawn)
[1]
  EC: >40 µg/mL
[2]
  EC: 10 µg/mL
[3]
  EC: 10 µg/mL
[4]
  EC: 10 µg/mL
[5]
  EC: 20 µg/mL
[6]
  EC: 10 µg/mL

## CSCC(=O)N[C@H]1CC=C[C@H](CC(=O)[O-])OB1O.[Na+]
[13]
  bioavailability: 9.3%
[19]
  AUC at 24.5 h: 276 µg·h/mL
[16]
  AUC at 24 h: 2600 ng·h/mL
[20]
  AUC at 24.5 h: 28100 ng·h/mL
[21]
  AUC at 24.5 h: 79400 ng·h/mL
